Among the data in publication PMC6757289, “Design and Characterization of SGK3-PROTAC1, an Isoform Specific SGK3 Kinase PROTAC Degrader” (ACS Chemical Biology, 2019) are remaining activity values, retold here.

Common to all, as to assay: kinase profiling panel
What all share (assay type): biochemical
Holding throughout (conditions): read-out: % Activity Remaining

The target in one assay is BRK (Homo sapiens, UniProt Q13882). From the text:
(§1) Protein kinase profiling against a Dundee panel of 140 protein kinases was undertaken at the International Centre for Protein Kinase Profiling. The result for each kinase was presented as a mean kinase activity of the reaction taken in triplicate relative to a control sample treated with DMSO. Assay conditions and abbreviations are available at http://www.kinase-screen.mrc.ac.uk.

Another assay addresses HER4 (Homo sapiens, UniProt Q15303).
From the text: as §1

In the next assay the target is HIPK3 (Homo sapiens, UniProt Q9H422).
Chain of HIPK3 (Q9H422 whole entry): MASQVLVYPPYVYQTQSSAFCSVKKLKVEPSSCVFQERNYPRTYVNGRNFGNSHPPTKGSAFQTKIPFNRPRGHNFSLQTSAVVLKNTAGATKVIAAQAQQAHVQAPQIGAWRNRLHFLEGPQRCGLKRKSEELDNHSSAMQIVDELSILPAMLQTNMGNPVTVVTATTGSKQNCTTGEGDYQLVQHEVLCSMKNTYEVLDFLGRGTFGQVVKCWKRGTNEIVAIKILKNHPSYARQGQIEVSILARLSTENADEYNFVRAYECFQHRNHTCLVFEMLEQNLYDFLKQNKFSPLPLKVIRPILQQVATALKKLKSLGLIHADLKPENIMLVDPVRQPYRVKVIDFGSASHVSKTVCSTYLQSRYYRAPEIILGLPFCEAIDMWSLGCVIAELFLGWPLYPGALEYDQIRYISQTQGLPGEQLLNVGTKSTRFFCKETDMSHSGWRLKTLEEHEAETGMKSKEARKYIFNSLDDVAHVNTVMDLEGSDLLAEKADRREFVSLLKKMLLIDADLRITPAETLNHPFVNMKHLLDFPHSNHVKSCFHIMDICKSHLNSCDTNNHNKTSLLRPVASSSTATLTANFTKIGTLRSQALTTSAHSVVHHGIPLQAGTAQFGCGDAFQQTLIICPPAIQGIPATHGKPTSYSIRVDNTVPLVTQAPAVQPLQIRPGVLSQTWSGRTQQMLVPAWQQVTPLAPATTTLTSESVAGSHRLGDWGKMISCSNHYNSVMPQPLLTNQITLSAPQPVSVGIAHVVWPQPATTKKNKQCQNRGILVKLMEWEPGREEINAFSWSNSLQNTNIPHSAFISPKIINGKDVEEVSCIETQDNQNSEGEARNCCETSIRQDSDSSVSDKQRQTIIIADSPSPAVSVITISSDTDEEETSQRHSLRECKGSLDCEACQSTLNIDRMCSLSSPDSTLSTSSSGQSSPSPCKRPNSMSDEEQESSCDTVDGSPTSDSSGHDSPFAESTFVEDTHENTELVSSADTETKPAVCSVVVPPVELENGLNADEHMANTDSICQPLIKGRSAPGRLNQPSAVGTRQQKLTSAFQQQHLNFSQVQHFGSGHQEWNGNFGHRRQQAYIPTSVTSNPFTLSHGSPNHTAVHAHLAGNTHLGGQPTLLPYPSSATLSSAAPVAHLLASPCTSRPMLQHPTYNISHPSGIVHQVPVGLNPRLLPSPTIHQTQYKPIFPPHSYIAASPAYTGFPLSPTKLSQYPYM
From the text: as §1

For the next assay, the target named is MAP4K5 (Homo sapiens, UniProt Q9Y4K4).
From the text: as §1

The target of another assay is MEKK1 (Homo sapiens, UniProt Q13233).
From the text: as §1

A further assay has as its target MLK1 (Homo sapiens, UniProt P80192).
From the text: as §1

A further assay has as its target MSK1 (Homo sapiens, UniProt O75582).
From the text: as §1

The target in another assay is T1, NUAK1 (Homo sapiens, UniProt O60285).
T1 sequence (O60285 1-661): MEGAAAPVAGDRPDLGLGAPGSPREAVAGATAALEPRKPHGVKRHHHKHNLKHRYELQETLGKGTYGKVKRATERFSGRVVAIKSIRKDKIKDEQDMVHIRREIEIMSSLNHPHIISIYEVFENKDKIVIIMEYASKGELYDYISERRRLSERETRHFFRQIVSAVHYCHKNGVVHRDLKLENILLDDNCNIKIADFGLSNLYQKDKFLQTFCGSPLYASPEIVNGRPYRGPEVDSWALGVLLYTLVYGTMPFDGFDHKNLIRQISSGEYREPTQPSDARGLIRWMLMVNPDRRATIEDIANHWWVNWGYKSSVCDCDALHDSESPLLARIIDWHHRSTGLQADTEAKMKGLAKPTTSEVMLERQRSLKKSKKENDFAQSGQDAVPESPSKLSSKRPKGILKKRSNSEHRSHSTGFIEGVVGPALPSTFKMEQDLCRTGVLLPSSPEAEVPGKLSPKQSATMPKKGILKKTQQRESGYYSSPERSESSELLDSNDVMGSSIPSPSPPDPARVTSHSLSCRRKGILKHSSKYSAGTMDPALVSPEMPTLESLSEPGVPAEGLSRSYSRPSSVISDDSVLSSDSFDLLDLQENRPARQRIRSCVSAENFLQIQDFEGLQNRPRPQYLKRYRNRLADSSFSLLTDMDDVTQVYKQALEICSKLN
From the text: as §1

The target of the next assay is PLK1 (Homo sapiens, UniProt P53350).
Chain of PLK1 (P53350 whole entry): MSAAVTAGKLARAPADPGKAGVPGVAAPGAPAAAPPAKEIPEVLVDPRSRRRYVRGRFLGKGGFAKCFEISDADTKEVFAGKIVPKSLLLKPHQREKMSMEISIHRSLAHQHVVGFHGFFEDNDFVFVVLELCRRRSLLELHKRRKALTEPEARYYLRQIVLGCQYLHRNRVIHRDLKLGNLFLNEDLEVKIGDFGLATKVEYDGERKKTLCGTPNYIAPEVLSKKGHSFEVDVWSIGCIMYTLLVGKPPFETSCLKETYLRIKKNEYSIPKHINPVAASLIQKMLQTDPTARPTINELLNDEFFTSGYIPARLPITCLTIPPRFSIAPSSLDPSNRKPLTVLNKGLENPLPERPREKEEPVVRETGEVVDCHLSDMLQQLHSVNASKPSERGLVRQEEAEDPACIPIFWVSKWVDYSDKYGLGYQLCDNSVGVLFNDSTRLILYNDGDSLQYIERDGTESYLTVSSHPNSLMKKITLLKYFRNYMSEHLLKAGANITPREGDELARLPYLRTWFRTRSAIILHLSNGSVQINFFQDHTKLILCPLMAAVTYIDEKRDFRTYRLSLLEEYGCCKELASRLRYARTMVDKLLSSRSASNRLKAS
From the text: as §1

In another assay the target is T2, PRAK (Homo sapiens, UniProt Q8IW41).
T2 sequence (Q8IW41 1-473): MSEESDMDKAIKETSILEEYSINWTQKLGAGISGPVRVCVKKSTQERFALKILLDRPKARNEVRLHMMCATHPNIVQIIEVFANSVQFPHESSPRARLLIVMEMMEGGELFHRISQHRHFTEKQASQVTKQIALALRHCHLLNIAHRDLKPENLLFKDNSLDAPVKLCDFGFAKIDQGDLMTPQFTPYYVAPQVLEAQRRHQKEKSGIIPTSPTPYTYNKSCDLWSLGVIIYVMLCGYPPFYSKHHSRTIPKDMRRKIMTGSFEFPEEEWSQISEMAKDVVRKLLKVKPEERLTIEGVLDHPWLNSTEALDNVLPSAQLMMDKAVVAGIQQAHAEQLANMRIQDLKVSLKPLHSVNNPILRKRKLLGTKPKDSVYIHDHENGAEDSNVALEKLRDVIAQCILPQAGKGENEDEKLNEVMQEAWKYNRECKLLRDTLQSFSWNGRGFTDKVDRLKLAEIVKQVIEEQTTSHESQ
From the text: as §1

Another assay addresses PRK2 (Homo sapiens, UniProt Q16513).
From the text: as §1

The target in a further assay is RSK2 (Homo sapiens, UniProt P51812).
Chain of RSK2 (P51812 whole entry): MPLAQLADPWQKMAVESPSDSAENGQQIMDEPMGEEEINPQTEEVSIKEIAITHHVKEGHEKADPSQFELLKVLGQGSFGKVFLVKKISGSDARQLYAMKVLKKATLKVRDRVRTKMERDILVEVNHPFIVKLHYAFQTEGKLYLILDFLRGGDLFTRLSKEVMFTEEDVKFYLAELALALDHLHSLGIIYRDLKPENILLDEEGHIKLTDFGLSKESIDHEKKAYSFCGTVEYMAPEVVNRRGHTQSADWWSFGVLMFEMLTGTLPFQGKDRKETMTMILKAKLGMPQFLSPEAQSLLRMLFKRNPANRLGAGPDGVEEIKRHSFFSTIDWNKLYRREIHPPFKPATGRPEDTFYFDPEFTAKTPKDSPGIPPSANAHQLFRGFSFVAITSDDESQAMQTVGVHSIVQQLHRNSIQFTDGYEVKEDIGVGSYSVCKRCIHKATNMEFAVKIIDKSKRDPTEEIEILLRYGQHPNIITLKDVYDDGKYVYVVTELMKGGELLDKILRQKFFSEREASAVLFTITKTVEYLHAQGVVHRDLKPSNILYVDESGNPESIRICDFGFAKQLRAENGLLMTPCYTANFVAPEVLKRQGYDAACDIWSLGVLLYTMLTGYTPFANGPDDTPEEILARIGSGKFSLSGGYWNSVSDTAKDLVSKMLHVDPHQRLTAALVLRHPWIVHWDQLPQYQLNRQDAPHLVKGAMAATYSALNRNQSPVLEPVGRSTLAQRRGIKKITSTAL
From the text: as §1

A further assay addresses SIK2 (Homo sapiens, UniProt Q9H0K1).
From the text: as §1

Where two headings read alike, the source gives them in different places.

Chain of HER4 (Q15303 26-1308): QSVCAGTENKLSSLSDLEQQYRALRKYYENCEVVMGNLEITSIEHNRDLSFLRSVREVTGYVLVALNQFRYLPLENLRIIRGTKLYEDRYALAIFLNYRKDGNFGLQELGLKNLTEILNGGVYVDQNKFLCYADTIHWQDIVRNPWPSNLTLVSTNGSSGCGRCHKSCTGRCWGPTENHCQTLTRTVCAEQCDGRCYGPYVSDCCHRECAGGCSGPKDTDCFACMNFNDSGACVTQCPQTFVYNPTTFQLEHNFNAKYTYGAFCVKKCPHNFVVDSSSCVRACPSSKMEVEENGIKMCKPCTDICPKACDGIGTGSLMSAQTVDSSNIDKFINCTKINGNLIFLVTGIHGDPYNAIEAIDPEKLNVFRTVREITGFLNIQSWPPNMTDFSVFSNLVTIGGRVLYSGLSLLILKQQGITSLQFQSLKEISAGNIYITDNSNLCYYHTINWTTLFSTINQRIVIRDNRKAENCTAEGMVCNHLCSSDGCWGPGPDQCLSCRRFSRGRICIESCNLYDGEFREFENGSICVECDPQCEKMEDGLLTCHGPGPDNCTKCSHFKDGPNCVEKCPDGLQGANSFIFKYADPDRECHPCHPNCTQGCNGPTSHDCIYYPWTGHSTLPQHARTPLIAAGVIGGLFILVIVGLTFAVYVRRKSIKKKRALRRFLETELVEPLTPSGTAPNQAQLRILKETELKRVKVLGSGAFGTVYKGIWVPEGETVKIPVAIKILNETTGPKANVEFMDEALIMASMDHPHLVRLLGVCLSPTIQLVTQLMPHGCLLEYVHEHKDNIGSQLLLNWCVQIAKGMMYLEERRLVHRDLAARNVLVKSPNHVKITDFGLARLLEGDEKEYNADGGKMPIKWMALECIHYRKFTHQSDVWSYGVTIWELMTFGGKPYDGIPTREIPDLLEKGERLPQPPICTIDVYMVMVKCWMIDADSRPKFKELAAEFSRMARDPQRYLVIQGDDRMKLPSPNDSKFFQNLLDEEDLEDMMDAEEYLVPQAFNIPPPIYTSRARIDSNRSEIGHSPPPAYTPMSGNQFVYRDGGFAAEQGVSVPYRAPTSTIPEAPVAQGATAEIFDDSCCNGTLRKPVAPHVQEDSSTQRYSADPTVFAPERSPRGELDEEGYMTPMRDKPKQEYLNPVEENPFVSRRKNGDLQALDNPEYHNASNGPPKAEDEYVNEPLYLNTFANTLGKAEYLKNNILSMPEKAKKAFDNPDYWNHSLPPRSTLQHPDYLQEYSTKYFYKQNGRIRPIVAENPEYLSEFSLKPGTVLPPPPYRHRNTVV
Chain of PRK2 (Q16513 whole entry): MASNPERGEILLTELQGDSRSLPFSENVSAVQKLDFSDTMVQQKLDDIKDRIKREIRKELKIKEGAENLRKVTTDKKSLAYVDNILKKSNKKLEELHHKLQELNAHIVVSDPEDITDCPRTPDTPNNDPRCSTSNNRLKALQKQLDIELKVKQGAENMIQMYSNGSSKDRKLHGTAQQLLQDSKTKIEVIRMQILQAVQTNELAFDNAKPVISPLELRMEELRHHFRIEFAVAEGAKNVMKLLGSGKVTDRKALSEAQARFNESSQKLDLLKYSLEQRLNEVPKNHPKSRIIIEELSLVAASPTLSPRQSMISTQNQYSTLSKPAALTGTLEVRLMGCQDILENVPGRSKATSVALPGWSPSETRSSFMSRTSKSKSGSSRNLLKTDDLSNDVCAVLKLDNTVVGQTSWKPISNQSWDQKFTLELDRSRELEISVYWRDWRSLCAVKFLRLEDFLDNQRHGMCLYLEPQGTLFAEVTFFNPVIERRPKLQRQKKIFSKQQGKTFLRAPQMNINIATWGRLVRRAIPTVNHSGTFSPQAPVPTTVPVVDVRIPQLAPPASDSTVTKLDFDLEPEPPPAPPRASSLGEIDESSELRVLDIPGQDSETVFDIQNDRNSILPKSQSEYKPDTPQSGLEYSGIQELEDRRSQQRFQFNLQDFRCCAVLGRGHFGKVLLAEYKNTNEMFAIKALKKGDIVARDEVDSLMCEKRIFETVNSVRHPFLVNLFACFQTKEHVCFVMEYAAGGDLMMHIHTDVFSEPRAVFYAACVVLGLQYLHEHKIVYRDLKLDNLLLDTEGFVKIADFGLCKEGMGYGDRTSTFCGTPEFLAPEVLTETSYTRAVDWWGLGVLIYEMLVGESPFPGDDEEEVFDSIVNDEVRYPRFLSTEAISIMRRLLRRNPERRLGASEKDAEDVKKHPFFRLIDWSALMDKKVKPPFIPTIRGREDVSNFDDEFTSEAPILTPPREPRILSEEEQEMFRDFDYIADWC

Take `COc1ccc(Cl)c(S(=O)(=O)Nc2ccc(-c3nc(OC[C@H]4CNCCO4)c4c(C)n[nH]c4n3)cc2)c1` [290-R, reference compound]: the remaining activity at 1 µM was found to be 113% at BRK; 102% on HER4; 109% at HIPK3; 19% on MAP4K5; 112% at MEKK1; 9% at MLK1. Besides, the remaining activity at 1 µM was 10% at MSK1; 91% at NUAK1; 102% on PLK1; 78% at PRAK; 76% on PRK2; 24% at RSK2. The remaining activity at 1 µM on SIK2 was found to be 91%.

On to `Cc1ccc(F)c(S(=O)(=O)Nc2ccc(-c3nc(OC[C@H]4CNCCO4)c4cn[nH]c4n3)cc2)c1` [308-R, reference compound], for which the remaining activity at 1 µM was 86% on BRK; 67% on HER4; 44% at HIPK3; 63% on MAP4K5; 115% at MEKK1; 16% at MLK1. For the same molecule, the remaining activity at 1 µM at MSK1 turned out to be 7%; on NUAK1, 103%; on PLK1, 86%; at PRAK, 86%; on PRK2, 82%; at RSK2, 24%. Further, the remaining activity at 1 µM at SIK2 is 55%.

In the case of `Cc1ccc(F)c(S(=O)(=O)Nc2ccc(-c3nc(OC[C@H]4CN(CCCCCCOCCOCCOCC(=O)N[C@H](C(=O)N5C[C@H](O)C[C@H]5C(=O)NCc5ccc(-c6scnc6C)cc5)C(C)(C)C)CCO4)c4cn[nH]c4n3)cc2)c1` [SGK3-PROTAC1], the remaining activity at 1 µM on BRK (1 µM) amounted to 87%; at HER4 (1 µM), 92%; on HIPK3 (1 µM) it was 111%; at MAP4K5 (1 µM), 99%; on MEKK1 (1 µM) it was 124%; on MLK1 (1 µM), 82%. The remaining activity at 1 µM at MSK1 (1 µM) was determined as 50%; at NUAK1 (1 µM) it was 98%; at PLK1 (1 µM), 98%; at PRAK (1 µM) it was 115%; on PRK2 (1 µM), 105%; at RSK2 (1 µM) it was 120%. Besides, the remaining activity at 1 µM at SIK2 (1 µM) turned out to be 95%.

Turning to `Cc1ccc(F)c(S(=O)(=O)Nc2ccc(-c3nc(OC[C@H]4CN(CCCCCCOCCOCCOCC(=O)N[C@H](C(=O)N5C[C@@H](O)C[C@H]5C(=O)NCc5ccc(-c6scnc6C)cc5)C(C)(C)C)CCO4)c4cn[nH]c4n3)cc2)c1` [cisSGK3-PROTAC1], the remaining activity at 1 µM came to 105% on BRK (1 µM); 103% on HER4 (1 µM); 105% at HIPK3 (1 µM); 101% on MAP4K5 (1 µM); 128% at MEKK1 (1 µM); 94% at MLK1 (1 µM). The remaining activity at 1 µM on MSK1 (1 µM) worked out at 56%; on NUAK1 (1 µM) it was 90%; on PLK1 (1 µM) it was 98%; on PRAK (1 µM) it was 119%; on PRK2 (1 µM), 101%; on RSK2 (1 µM) it was 109%. At SIK2 (1 µM), the remaining activity at 1 µM is 94%.
